The values that follow come from ChEMBL document CHEMBL4330088, “Targeting the immunity protein kinases for immuno-oncology” (Eur J Med Chem, 2019).

Data set [1] in a line: Half life of compound in human PBMC. The data set is classed as ADME, cell-based.
In data set [2] the target is MAP kinase-interacting serine/threonine-protein kinase 1/2 (Homo sapiens) (UniProt Q9HBH9+Q9BUB5). The experiment in a line: Inhibition of MNK in human PBMC assessed as reduction in eIF4E phosphorylation at 200 mg after 24 hrs relative to control.
Data set [3] concerns the target T1, Interleukin-1 receptor-associated kinase 4 (Homo sapiens, UniProt Q9NWZ3).
T1 sequence (Q9NWZ3 whole entry): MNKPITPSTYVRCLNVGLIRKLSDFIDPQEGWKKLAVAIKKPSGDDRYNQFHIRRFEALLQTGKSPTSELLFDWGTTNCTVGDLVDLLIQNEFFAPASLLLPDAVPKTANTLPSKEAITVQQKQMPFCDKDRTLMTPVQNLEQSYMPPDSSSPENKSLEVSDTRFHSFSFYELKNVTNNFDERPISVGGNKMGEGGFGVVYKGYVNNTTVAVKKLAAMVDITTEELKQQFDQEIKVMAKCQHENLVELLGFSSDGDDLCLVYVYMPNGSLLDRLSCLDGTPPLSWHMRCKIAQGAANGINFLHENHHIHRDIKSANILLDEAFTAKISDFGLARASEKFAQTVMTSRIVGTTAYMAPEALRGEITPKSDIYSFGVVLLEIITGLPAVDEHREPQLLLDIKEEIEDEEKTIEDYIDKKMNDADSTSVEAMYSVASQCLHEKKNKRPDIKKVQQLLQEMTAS
Put plainly: Inhibition of IRAK4 (unknown origin).

The target of the next data set is PI3K p110 beta/p85 alpha (Homo sapiens, UniProt P42338). Put plainly: Inhibition of human full length recombinant N-terminal His-tagged PI3Kbeta/p85alpha expressed in baculovirus infected Sf21 insect cells.
Chain of PI3K p110 beta/p85 alpha (P27986 whole entry, canonical isoform): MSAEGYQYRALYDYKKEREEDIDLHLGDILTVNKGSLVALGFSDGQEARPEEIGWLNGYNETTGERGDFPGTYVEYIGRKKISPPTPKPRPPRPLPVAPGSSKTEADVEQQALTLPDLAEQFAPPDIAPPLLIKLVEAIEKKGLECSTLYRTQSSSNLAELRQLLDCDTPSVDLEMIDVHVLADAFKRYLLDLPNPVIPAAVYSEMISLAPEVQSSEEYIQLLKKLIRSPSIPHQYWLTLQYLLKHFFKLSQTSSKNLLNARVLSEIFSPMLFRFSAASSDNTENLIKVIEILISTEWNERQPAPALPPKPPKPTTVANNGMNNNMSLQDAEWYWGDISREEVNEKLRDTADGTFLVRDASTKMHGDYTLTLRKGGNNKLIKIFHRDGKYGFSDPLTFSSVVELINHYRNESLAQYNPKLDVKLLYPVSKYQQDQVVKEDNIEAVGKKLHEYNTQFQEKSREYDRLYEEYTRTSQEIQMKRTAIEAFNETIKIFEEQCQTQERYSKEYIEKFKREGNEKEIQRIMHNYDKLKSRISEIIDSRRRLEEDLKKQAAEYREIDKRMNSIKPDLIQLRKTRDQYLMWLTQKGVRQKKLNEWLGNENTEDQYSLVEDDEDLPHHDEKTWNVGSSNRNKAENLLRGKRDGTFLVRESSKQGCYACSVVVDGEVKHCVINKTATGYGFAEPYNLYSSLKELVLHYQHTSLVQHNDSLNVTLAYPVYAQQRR
Chain of PI3K p110 beta/p85 alpha (P42338 whole entry, canonical isoform): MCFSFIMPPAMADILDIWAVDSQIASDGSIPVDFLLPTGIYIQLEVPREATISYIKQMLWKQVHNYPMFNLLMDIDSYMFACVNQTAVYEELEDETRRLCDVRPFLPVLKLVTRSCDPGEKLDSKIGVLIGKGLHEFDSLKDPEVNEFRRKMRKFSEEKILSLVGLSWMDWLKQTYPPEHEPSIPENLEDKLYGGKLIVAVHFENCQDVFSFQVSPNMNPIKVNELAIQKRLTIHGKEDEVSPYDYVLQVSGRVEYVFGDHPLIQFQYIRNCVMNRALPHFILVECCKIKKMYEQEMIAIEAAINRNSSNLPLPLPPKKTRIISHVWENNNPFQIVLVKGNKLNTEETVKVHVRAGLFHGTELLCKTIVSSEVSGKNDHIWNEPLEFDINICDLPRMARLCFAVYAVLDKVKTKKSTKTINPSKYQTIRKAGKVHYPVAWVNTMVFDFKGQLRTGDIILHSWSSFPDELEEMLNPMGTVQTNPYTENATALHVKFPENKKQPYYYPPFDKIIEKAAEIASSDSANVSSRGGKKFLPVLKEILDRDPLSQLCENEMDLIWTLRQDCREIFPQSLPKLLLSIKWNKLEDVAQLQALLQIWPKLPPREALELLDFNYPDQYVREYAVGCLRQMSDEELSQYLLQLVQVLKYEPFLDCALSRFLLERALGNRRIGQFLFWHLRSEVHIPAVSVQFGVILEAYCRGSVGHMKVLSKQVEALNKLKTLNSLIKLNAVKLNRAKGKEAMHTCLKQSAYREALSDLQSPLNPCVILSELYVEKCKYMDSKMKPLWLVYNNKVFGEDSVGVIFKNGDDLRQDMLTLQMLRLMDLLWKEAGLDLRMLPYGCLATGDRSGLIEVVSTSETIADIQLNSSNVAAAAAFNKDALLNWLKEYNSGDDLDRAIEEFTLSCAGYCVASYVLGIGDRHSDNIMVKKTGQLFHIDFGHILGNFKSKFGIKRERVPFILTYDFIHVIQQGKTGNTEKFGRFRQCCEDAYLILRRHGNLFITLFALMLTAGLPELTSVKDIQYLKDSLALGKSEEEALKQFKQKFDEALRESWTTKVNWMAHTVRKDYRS
Data set [4] addresses Phosphatidylinositol 4,5-bisphosphate 3-kinase catalytic subunit gamma isoform (Homo sapiens, UniProt P48736). The experiment in a line: Inhibition of PI3Kgamma (unknown origin).
In data set [5] the target is PI3-kinase p110-alpha/p85-alpha (Homo sapiens, UniProt P42336). The experiment in a line: Inhibition of human N-terminal His-tagged PI3Kalpha/p85alpha expressed in Spodoptera frugiperda using phosphatidylinositol as substrate.
Chain of PI3-kinase p110-alpha/p85-alpha (P27986 whole entry): as the sequence (P27986 whole entry, canonical isoform) above
Chain of PI3-kinase p110-alpha/p85-alpha (P42336 whole entry): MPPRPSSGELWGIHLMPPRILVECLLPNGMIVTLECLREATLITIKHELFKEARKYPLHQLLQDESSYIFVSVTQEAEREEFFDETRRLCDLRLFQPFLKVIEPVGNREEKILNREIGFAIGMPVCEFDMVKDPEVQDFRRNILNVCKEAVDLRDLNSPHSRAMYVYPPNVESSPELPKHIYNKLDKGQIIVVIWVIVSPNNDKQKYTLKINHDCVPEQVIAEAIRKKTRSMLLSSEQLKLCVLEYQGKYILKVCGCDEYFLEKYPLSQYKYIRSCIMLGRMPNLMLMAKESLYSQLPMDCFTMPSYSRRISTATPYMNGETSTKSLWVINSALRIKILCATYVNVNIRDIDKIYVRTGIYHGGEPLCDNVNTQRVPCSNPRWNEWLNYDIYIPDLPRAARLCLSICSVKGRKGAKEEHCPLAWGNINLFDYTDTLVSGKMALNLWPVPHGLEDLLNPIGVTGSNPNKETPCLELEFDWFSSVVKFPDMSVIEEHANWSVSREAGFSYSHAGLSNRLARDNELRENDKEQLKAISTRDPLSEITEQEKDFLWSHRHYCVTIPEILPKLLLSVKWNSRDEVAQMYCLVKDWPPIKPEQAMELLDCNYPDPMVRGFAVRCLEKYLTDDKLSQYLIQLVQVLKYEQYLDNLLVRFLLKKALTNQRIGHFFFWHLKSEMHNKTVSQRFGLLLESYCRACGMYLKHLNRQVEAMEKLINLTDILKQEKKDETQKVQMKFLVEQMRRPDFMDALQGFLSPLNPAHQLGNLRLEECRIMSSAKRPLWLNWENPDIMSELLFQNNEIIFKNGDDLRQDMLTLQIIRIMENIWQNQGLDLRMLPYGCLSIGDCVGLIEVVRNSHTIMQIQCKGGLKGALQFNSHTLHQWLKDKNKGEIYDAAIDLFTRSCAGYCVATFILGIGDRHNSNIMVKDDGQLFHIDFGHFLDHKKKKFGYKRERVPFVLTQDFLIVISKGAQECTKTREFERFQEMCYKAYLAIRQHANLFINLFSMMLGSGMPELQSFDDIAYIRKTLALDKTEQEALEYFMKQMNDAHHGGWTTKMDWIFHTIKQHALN
The species entered for data set [6] is Homo sapiens. Put plainly: Selectivity ratio of IC50 for PI3Kdelta (unknown origin) to IC50 for human N-terminal His-tagged PI3Kalpha/p85alpha.
For data set [7], the species on record is Homo sapiens. Put plainly: Selectivity ratio of IC50 for PI3Kdelta (unknown origin) to IC50 for PI3Kgamma (unknown origin).
Data set [8] is filed under the species Homo sapiens. Put plainly: Selectivity ratio of IC50 for PI3Kdelta (unknown origin) to IC50 for human full length recombinant N-terminal His-tagged PI3Kbeta/p85alpha.
The target in data set [9] is T2, Tyrosine-protein kinase JAK3 (Homo sapiens, UniProt P52333).
T2 sequence (P52333 whole entry): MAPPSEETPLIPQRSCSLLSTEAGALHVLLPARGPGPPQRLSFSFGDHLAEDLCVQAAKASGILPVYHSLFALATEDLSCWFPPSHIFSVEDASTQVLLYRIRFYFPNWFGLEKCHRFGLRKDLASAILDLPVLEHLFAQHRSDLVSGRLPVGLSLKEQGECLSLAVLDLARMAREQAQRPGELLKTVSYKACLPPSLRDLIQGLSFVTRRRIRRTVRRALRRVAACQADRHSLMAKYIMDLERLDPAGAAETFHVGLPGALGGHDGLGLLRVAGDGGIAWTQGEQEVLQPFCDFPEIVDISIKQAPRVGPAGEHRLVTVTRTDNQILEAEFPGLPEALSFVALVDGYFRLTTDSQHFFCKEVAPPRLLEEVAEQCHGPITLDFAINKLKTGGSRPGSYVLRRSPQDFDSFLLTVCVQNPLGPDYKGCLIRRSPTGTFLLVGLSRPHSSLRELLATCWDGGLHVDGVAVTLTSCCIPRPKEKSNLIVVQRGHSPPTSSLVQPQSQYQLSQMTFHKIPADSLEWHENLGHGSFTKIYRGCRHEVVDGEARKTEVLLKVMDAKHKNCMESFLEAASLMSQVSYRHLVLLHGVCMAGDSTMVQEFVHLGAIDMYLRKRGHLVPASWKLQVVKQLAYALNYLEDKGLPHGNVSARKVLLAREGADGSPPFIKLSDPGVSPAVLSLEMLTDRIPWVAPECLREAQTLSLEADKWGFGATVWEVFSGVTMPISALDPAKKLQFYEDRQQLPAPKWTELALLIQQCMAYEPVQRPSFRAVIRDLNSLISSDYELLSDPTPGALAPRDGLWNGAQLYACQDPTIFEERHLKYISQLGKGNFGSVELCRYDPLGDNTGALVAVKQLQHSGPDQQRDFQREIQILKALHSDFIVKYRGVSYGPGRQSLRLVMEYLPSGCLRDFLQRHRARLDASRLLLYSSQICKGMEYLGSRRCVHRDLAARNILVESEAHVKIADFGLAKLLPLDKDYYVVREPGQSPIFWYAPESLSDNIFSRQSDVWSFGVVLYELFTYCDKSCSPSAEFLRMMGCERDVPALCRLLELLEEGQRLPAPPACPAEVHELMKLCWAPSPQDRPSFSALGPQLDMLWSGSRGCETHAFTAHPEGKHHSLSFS
Put plainly: Inhibition of JAK3 in human Jurkat cells assessed as reduction in IFN-alpha stimulated JAK3 phosphorylation by […] Western blot analysis. Format: cell-based. A general note: Immunoblotting shows a protein as a band on a membrane.

Data set [10] has as its target Non-receptor tyrosine-protein kinase TYK2 (Homo sapiens, UniProt P29597). Put plainly: Inhibition of TYK2 in human Jurkat cells assessed as reduction in IFN-alpha stimulated TYK2 phosphorylation by […] Western blot analysis. The data set is classed as cell-based.
For data set [11], the target named is Tyrosine-protein kinase JAK1 (Homo sapiens, UniProt P23458). Put plainly: Inhibition of JAK1 in human Jurkat cells assessed as reduction in IFN-alpha stimulated JAK1 phosphorylation by […] Western blot analysis. The data set is classed as cell-based.

Chain of Phosphatidylinositol 4,5-bisphosphate 3-kinase catalytic subunit gamma isoform (P48736 whole entry, canonical isoform): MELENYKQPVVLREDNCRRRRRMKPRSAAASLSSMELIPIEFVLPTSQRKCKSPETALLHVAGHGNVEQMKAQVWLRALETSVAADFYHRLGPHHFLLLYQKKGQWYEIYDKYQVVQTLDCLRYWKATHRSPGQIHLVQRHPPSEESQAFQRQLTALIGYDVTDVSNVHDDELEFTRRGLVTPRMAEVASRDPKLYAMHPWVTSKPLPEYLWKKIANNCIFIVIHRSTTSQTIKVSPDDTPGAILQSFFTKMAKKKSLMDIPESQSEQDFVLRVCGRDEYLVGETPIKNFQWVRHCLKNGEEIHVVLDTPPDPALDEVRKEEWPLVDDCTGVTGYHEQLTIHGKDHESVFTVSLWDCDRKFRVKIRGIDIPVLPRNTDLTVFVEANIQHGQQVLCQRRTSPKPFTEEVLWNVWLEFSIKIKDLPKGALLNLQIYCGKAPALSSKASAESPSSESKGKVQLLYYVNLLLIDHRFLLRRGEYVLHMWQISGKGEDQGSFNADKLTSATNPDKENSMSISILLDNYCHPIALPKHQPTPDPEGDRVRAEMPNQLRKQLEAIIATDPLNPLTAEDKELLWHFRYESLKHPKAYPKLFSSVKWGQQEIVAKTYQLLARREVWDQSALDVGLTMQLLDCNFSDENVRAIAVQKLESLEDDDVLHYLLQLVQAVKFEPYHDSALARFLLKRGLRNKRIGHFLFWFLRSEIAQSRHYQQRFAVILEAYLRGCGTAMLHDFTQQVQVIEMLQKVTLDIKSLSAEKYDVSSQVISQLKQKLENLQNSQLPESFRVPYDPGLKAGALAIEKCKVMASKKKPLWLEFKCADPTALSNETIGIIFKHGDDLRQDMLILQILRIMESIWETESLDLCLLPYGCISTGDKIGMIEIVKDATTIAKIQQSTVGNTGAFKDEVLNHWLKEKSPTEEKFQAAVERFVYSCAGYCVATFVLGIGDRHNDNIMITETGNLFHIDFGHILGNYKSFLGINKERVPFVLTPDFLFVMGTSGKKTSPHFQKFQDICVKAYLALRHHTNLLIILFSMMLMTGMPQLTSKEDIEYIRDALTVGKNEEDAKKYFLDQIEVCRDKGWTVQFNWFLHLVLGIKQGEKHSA

A word on the half-life: it is how long it takes for the measured level to halve. A higher half-life goes with slow loss. One may read the inhibition as how much of the control response was suppressed. On to `Cc1cc(Nc2cc(N)ncn2)c(=O)n2c1C(=O)NC21CCCCC1.Cl` [TOMIVOSERTIB HYDROCHLORIDE], for which the half-life in data set [1] was 660 min. Further, the inhibition in data set [2] amounted to 85%.
What is called IC50 is the concentration needed to halve the response being measured. As to `NC(=O)C[C@H]1CCc2sc3ncnc(O[C@H]4CC[C@H](N5CCOCC5)CC4)c3c21`, the concentration for half-maximal inhibition (IC50) in data set [3] stood at 7.5 nM.
In the case of `Cc1csc2nc([C@H](C)Nc3ncnc4[nH]cnc34)c(-c3cccc(F)c3)c(=O)n12` [DEZAPELISIB], the 50% inhibitory concentration (IC50) came to 3.75 µM on PI3K p110 beta/p85 alpha and 2300 nM in [4].
Take `Fc1ccc2[nH]ccc2c1-c1nc(N2CCOCC2)c2sc(CN3CCN(CC4CC4)CC3)cc2n1`: the IC50 at PI3K p110 beta/p85 alpha was 1.08 µM; in data set [5], 2300 nM; in data set [4] it was over 10000 nM. In addition, the Ratio IC50 in the data set filed under Homo sapiens [6], in the data set filed under Homo sapiens [7] and in the data set filed under Homo sapiens [8] was over 72 each time.
Regarding `N#Cc1ccc(-c2cnc3ccc(-c4ccc(C(=O)N5CCOCC5)cc4)cn23)cc1` [TINODASERTIB], the half-life in data set [1] is 1500 min.
In the case of `CC(C)Oc1ccc(-c2nn([C@@H](C)c3oc4ccc(F)cc4c(=O)c3-c3cccc(F)c3)c3ncnc(N)c23)cc1F` [UMBRALISIB], the half-inhibitory concentration (IC50) is over 10 µM at PI3K p110 beta/p85 alpha, over 10000 nM in [5] and 1400 nM in data set [4].
As for `CC[C@@H]1[C@H](F)C(=O)N[C@@H]1COc1cccc2cc(C(N)=O)c(OC)cc12`, in data set [3], half-maximal inhibition (IC50) was put at 0.2 nM.
`NC(=O)c1nc(-c2c(F)cccc2Cl)oc1Nc1ccc(C(=O)N2CCOCC2)cc1`: the IC50 came out at 41 nM in data set [9], 0.6 nM in data set [10] and 23 nM in data set [11].
